Test results reported in ChEMBL document CHEMBL6109108, “A comprehensive review of fused imidazonaphthyridine derivatives: Synthetic approaches and biological applications” (Bioorg Med Chem, 2025).
Converted amounts (≈) assume the structure as drawn.

Experiments:
[1] = biological target: Voltage-gated inwardly rectifying potassium channel KCNH2 (Homo sapiens, UniProt Q12809); assay: Inhibition of hERG; format: toxicity
[2] = test system: Staphylococcus aureus; assay: Antibacterial activity against Staphylococcus aureus assessed as zone of inhibition at 10 ug/ml by agar disc diffusion method; format: functional; settings: read-out: IZ
[3] = test system: Staphylococcus aureus; assay: Antibacterial activity against Staphylococcus aureus assessed as zone of inhibition at 25 ug/ml by agar disc diffusion method; format: functional; settings: read-out: IZ
[4] = test system: Staphylococcus aureus; assay: Antibacterial activity against Staphylococcus aureus assessed as zone of inhibition at 35 ug/ml by agar disc diffusion method; format: functional; settings: read-out: IZ
[5] = test system: Escherichia coli; assay: Antibacterial activity against Escherichia coli assessed as zone of inhibition at 10 ug/ml by agar disc diffusion method; format: functional; settings: read-out: IZ
[6] = test system: Escherichia coli; assay: Antibacterial activity against Escherichia coli assessed as zone of inhibition at 25 ug/ml by agar disc diffusion method; format: functional; settings: read-out: IZ
[7] = test system: Escherichia coli; assay: Antibacterial activity against Escherichia coli assessed as zone of inhibition at 35 ug/ml by agar disc diffusion method; format: functional; settings: read-out: IZ
[8] = test system: Candida metapsilosis; assay: Antifungal activity against Candida metapsilosis assessed as zone of inhibition at 10 ug/ml by disc diffusion method; format: functional; settings: Lodderomyces metapsilosis, read-out: IZ
[9] = test system: Candida metapsilosis; assay: Antifungal activity against Candida metapsilosis assessed as zone of inhibition at 25 ug/ml by disc diffusion method; format: functional; settings: Lodderomyces metapsilosis, read-out: IZ
[10] = test system: Candida metapsilosis; assay: Antifungal activity against Candida metapsilosis assessed as zone of inhibition at 35 ug/ml by disc diffusion method; format: functional; settings: Lodderomyces metapsilosis, read-out: IZ
[11] = test system: Aspergillus niger; assay: Antifungal activity against Aspergillus niger assessed as zone of inhibition at 10 ug/ml by disc diffusion method; format: functional; settings: read-out: IZ
[12] = test system: Aspergillus niger; assay: Antifungal activity against Aspergillus niger assessed as zone of inhibition at 25 ug/ml by disc diffusion method; format: functional; settings: read-out: IZ
[13] = test system: Aspergillus niger; assay: Antifungal activity against Aspergillus niger assessed as zone of inhibition at 35 ug/ml by disc diffusion method; format: functional; settings: read-out: IZ
[14] = test system: Chikungunya virus; assay: Antiviral activity against Chikungunya virus infected in Vero E6 cells assessed as inhibition of virus-induced cytopathic effect incubated for 72 hrs by CellTiter Glo luminescence assay; format: functional, organism-based; settings: Vero C1008, 72 h
[15] = test system: Rattus norvegicus; assay: Anti-inflammatory activity against carrageenan-induced paw edema in rat assessed as inhibition of paw edema at 50 mg/kg, po relative to control; format: functional; design: scale not given: the % may be the effect or the level left
[16] = test system: Staphylococcus aureus; assay: Antibacterial activity against Staphylococcus aureus assessed as zone of inhibition at 10 ug/ml by agar well diffusion method; format: functional; settings: read-out: IZ
[17] = test system: Staphylococcus aureus; assay: Antibacterial activity against Staphylococcus aureus assessed as zone of inhibition at 25 ug/ml by agar well diffusion method; format: functional; settings: read-out: IZ
[18] = test system: Staphylococcus aureus; assay: Antibacterial activity against Staphylococcus aureus assessed as zone of inhibition at 35 ug/ml by agar well diffusion method; format: functional; settings: read-out: IZ
[19] = test system: Escherichia coli; assay: Antibacterial activity against Escherichia coli assessed as zone of inhibition at 10 ug/ml by agar well diffusion method; format: functional; settings: read-out: IZ
[20] = test system: Escherichia coli; assay: Antibacterial activity against Escherichia coli assessed as zone of inhibition at 25 ug/ml by agar well diffusion method; format: functional; settings: read-out: IZ
[21] = test system: Escherichia coli; assay: Antibacterial activity against Escherichia coli assessed as zone of inhibition at 35 ug/ml by agar well diffusion method; format: functional; settings: read-out: IZ
[22] = Antiproliferative activity against mouse BaF3/TRP-Met cells
[23] = test system: Escherichia coli; assay: Antibacterial activity against Escherichia coli 209p assessed as reduction in bacterial growth by CLSI protocol based agar dilution method; format: functional
[24] = test system: Shigella flexneri; assay: Antibacterial activity against Shigella flexneri NIHJ assessed as reduction in bacterial growth by CLSI protocol based agar dilution method; format: functional
[25] = test system: Pseudomonas aeruginosa; assay: Antibacterial activity against Pseudomonas aeruginosa assessed as reduction in bacterial growth by CLSI protocol based agar dilution method; format: functional
[26] = test system: Staphylococcus aureus; assay: Antibacterial activity against Staphylococcus aureus assessed as reduction in bacterial growth by CLSI protocol based agar dilution method; format: functional
[27] = test system: Hepatitis C virus; assay: Antiviral activity against Hepatitis C virus genotype 2a infected in human Huh-7 cells assessed as reduction in viral infection; format: functional, organism-based, Hepacivirus hominis
[28] = biological target: hERG (KCNH2) (Homo sapiens, UniProt Q12809); assay: Inhibition of hERG potassium […] at 100 uM relative to control; format: toxicity
Sequence of hERG (KCNH2) (Q12809 whole entry): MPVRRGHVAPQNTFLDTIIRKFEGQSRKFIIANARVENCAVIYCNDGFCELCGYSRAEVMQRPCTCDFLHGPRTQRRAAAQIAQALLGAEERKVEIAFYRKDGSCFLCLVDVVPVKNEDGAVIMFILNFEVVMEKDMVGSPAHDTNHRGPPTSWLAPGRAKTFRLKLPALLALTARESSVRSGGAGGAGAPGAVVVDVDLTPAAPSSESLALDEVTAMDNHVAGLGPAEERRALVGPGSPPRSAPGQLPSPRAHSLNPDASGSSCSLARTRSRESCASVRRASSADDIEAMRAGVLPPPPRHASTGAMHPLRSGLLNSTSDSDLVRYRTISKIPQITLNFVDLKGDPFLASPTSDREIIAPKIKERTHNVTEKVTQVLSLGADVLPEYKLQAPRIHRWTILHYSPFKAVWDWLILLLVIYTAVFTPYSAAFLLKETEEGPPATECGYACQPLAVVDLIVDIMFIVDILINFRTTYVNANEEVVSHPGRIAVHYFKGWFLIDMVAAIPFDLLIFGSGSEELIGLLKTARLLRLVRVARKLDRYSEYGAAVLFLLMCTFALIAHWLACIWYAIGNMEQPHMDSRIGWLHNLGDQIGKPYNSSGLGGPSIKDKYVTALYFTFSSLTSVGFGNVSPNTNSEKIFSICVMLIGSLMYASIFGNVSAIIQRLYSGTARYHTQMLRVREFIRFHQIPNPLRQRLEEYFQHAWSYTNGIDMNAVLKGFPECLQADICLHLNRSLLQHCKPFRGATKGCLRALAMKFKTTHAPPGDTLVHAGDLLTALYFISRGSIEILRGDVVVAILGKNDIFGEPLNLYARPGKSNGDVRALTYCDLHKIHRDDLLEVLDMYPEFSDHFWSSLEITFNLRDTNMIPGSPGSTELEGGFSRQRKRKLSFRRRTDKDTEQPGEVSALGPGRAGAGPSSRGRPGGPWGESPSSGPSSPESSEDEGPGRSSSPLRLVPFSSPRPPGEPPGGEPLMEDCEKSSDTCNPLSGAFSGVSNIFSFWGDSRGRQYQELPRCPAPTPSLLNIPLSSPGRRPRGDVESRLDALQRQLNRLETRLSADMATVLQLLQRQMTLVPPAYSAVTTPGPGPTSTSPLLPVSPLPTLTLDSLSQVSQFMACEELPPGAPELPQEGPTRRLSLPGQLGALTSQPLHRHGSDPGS

Sequence of Voltage-gated inwardly rectifying potassium channel KCNH2 (Q12809 whole entry, the tested form may be a part): as the sequence (Q12809 whole entry) above

## Cc1cc(C)c2ccc3nc(-c4ccccc4)c(CN4CCCCC4)n3c2n1
[1]
  IC50: 1190 nM

## O=c1oc2ccccc2cc1-c1cnc2c(-c3cccc(O)c3)cc3cccnc3n12
[2]
  zone of inhibition at 10 µg/mL: 8 mm
[3]
  zone of inhibition at 25 µg/mL: 19 mm
[4]
  zone of inhibition at 35 µg/mL: 31 mm
[5]
  zone of inhibition at 10 µg/mL: 8 mm
[6]
  zone of inhibition at 25 µg/mL: 2 mm
[7]
  zone of inhibition at 35 µg/mL: 32 mm
[8]
  zone of inhibition at 10 µg/mL: 7 mm
[9]
  zone of inhibition at 25 µg/mL: 17 mm
[10]
  zone of inhibition at 35 µg/mL: 28 mm
[11]
  zone of inhibition at 10 µg/mL: 7 mm
[12]
  zone of inhibition at 25 µg/mL: 20 mm
[13]
  zone of inhibition at 35 µg/mL: 28 mm

## FC(F)(F)c1cc(C(F)(F)F)c2ccc3nc(-c4nnco4)cn3c2n1
[14]
  EC50: 203 nM

## O=[N+]([O-])c1cccc(-c2cc3cccnc3n3c(-c4ccc(Cl)cc4)cnc23)c1
[2]
  zone of inhibition at 10 µg/mL: 8 mm
[3]
  zone of inhibition at 25 µg/mL: 19 mm
[4]
  zone of inhibition at 35 µg/mL: 29 mm
[5]
  zone of inhibition at 10 µg/mL: 8 mm
[6]
  zone of inhibition at 25 µg/mL: 20 mm
[7]
  zone of inhibition at 35 µg/mL: 30 mm
[8]
  zone of inhibition at 10 µg/mL: 7 mm
[9]
  zone of inhibition at 25 µg/mL: 17 mm
[10]
  zone of inhibition at 35 µg/mL: 28 mm
[11]
  zone of inhibition at 10 µg/mL: 7 mm
[12]
  zone of inhibition at 25 µg/mL: 20 mm
[13]
  zone of inhibition at 35 µg/mL: 28 mm

## Cn1cnc2c3cccnc3n(-c3ccccc3)c(=O)c21
[15]
  Activity: 40%

## Fc1ccc(-c2cc3cccnc3n3c(-c4ccc(Br)cc4)cnc23)c(Cl)c1
[16]
  zone of inhibition at 10 µg/mL: 6 mm
[17]
  zone of inhibition at 25 µg/mL: 16 mm
[18]
  zone of inhibition at 35 µg/mL: 24 mm
[19]
  zone of inhibition at 10 µg/mL: 6 mm
[20]
  zone of inhibition at 25 µg/mL: 16 mm
[21]
  zone of inhibition at 35 µg/mL: 25 mm

## N[C@H]1CC[C@H](n2c(=O)n(Cc3ccc(Cl)c(Cl)c3)c3nc(Oc4ccc(C(=O)N5CCCCC5)cc4)c4cccnc4c32)CC1
[22]
  IC50: < 1000 nM

## COc1ccc(-c2nc3ccc4c(C)cc(C)nc4n3c2CN2CCC(C)CC2)cc1
[1]
  IC50: 1120 nM

## CCn1cnc2cc3c(=O)c(C(=O)O)cn(CC)c3nc21
[23]
  MIC: 3.13 µg/mL (≈ 10.9 µM)
[24]
  MIC: 3.13 µg/mL (≈ 10.9 µM)
[25]
  MIC: > 100 µg/mL
[26]
  MIC: 25 µg/mL (≈ 87.3 µM)

## Cc1ccccc1-c1cnc2ccc3c(C(F)(F)F)cc(C(F)(F)F)nc3n12
[27]
  EC50: 2800 nM

## Cc1cc(C)c2ccc3nc(-c4ccccc4)c(CN4CCOCC4)n3c2n1
[28]
  inhibition at 100 µM: 10.1%

## CCn1cnc2c3cccnc3n(-c3ccccc3)c(=O)c21
[15]
  Activity: 58.2%

## COc1ccc(-c2cc3c(C(F)(F)F)cc(C(F)(F)F)nc3n3c(-c4ccc(OC)cc4)cnc23)cc1
[27]
  EC50: 4100 nM
